Reference: patent publication US8796268B2, “Heteroaryls and uses thereof” (Millennium Pharmaceuticals, Inc., priority 2010, dated 2014)

Tests used:
[1] = target: T1, Human PI3K alpha (Homo sapiens, UniProt P42336); experiment: Human PI3K alpha enzyme assay (HTRF); format: biochemical; settings: read-out: PI3Kalpha IC50
T1 construct: His (N); host or cells: SF9 insect cells (baculovirus)
Text: (§1) The catalytic subunits of PI3Ks are cloned into either pDEST8(p110 alpha) or pDEST10(p110beta, p110delta, and p110gamma) as N-terminal His tagged fusion proteins using the Gateway system (Invitrogen, catalog#11804-010 for pDEST8 and 11806-015 for pDEST10). The sequences are verified before recombinant protein expression using the Baculovirus Expression System with Gateway® Technology. The accession numbers for the subunits are as follows: • p110 alpha (GB:U79143) • p110beta (GB: S67334) • p110delta (GB: U86453) • p110gamma (GB: X83368) • The regulatory subunits of PI3Ks are cloned into pDEST8 as un-tagged protein using the Gateway system (Catalog#11804-010). The sequences are verified before recombinant protein expression using the Baculovirus Expression System with Gateway® Technology. The accession numbers for the subunits are as following: • p85 alpha (GB: BC030815) • p101(GB: AB028925) • VPS34 (accession number GB:BC033004) is cloned into pDEST20—Thombin as N-terminal GST tagged fusion proteins using the Gateway system (Invitrogen, catalog#11804-013). The sequences are verified before recombinant protein expression using the Baculovirus Expression System with Gateway® Technology.
(§2) For expression of the p110 complexes, the p85 (MOI of 4) is co-infected with p110 alpha, beta, and delta respectively (1MOI) in SF9 cells and harvested at 60 hours post co-infection. P110 gamma was infected at 1 MOI and harvested at 60 hours post infection.
(§3) For purification, PI3Ks are purified by Ni-NTA Agarose (Qiagen #30250) followed by Mono Q 10/100 GL (Ge Healthcare #17-5167-01). VPS34 is purified by Glutathione Sepharose 4 Fast Flow (GE Healthcare #17-5132-03) followed by HiTrap Q (GE Healthcare #17-1153-01).
1) Human PI3K alpha enzyme assay method
(§4) 0.5 uL compounds in DMSO are added to wells of a 384 well microtitre plate (Corning 3575). At room temperature: 10 ul PI3K reaction buffer (50 mM Hepes, 5 mM DTT, 150 mM NaCl, 10 mM beta-glycerophosphate, 10 mM MgCl2, 0.25 mM sodium cholate and 0.001% CHAPS, pH 7.00) containing ATP (25 uM, Promega) is added followed immediately by 10 ul PI3K reaction buffer containing di-C8 P1(4,5)P2 (3.5 uM, CellSignals) and PI3Kalpha (0.4875 nM, Millennium Protein Sciences Group) and the mixture is incubated with shaking at room temperature for 30 minutes. Then 5 ul PI3K stop mix (50 mM Hepes, 5 mM DTT, 150 mM NaCl, 0.01% Tween-20, 15 mM EDTA and 25 nM biotin-PI(3,4,5)P3 (Echelon) is added to quench the reaction followed immediately by addition of 5 ul HTRF detection mix (50 mM Hepes, 5 mM DTT, 150 mM NaCl, 0.01% Tween-20, 40 mM KF, 1.0 nM GST:GRP-1 PH domain (Millennium Protein Sciences Group), 15 nM Streptavidin-XL (CisBio) and 0.375 nM anti-GST Eu++ antibody (CisBio) at pH 7.00). The plates are then incubated for 1 hour at room temperature with shaking and then read on a BMG PheraStar Plus reader.
(§5) For the assay methods described above, test compound percent inhibition, at various concentrations, is calculated relative to control (DMSO and EDTA) treated samples. Compound concentration versus percent inhibition curves are fitted to generate IC50 values. One skilled in the art will appreciate that the values generated either as percentage inhibition at a single concentration or IC50 values are subject to experimental variation.

[2] = target: T2, Human PI3K beta (Homo sapiens, UniProt P42338); experiment: Human PI3K beta enzyme assay (HTRF); format: biochemical; settings: read-out: PI3 Kbeta IC50
T2 construct: His (N); host or cells: SF9 insect cells (baculovirus)
T2 sequence (P42338 whole entry): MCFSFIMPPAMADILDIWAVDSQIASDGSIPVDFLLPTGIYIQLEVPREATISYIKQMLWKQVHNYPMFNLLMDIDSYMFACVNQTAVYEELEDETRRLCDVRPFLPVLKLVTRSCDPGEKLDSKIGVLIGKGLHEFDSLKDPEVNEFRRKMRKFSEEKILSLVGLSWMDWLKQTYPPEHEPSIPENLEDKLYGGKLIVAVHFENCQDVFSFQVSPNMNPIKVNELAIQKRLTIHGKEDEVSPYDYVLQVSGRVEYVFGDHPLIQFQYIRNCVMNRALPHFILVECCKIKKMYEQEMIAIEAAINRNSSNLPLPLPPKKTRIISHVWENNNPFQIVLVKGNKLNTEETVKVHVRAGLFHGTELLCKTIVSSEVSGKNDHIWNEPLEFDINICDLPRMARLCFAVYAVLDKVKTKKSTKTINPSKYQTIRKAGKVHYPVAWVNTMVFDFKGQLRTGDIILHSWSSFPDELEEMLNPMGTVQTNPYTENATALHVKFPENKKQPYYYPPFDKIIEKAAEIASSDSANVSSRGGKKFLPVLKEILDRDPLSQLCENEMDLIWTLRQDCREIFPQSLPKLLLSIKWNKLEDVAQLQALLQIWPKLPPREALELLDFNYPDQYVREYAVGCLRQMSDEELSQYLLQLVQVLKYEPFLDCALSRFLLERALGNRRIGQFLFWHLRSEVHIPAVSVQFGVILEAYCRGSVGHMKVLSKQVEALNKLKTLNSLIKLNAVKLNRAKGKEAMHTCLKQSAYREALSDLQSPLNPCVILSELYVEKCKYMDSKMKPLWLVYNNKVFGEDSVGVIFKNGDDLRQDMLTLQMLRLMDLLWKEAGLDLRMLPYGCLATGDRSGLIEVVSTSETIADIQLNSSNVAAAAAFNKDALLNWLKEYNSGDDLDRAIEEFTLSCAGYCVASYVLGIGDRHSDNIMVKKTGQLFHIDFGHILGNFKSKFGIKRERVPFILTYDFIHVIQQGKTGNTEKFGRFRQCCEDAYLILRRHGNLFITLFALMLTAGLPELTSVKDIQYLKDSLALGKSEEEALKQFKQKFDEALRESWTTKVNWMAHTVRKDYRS
T2 sequence (P27986 whole entry partner): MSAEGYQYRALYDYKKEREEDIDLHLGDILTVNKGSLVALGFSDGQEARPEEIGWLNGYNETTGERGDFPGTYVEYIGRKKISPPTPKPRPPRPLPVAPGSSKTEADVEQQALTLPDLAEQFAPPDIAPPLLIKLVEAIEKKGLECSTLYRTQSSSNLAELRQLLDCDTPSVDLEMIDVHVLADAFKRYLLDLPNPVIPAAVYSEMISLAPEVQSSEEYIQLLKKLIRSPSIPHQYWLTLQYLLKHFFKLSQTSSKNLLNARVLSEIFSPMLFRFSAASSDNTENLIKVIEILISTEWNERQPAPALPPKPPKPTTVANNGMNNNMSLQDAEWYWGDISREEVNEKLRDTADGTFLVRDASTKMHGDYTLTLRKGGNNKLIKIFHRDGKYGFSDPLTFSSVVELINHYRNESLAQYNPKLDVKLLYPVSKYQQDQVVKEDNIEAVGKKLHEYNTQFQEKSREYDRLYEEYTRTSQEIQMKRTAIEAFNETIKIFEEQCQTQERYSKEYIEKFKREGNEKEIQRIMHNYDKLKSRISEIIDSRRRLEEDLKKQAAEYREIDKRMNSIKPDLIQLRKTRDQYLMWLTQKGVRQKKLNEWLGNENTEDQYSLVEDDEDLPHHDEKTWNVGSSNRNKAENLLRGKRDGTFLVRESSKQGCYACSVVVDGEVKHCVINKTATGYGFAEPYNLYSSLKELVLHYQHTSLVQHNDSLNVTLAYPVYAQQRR
Text: as §1, §2, §3, §4
2) Human PI3K beta, delta and gamma isoforms are tested using the procedure described for PI3K alpha above but with the following changes: PI3K beta (5.25 nM), PI3K delta (0.75 nM) and PI3K gamma (5 nM). All isoforms supplied by Millennium Protein Science Group.
as §5

T1 sequence (P42336 whole entry): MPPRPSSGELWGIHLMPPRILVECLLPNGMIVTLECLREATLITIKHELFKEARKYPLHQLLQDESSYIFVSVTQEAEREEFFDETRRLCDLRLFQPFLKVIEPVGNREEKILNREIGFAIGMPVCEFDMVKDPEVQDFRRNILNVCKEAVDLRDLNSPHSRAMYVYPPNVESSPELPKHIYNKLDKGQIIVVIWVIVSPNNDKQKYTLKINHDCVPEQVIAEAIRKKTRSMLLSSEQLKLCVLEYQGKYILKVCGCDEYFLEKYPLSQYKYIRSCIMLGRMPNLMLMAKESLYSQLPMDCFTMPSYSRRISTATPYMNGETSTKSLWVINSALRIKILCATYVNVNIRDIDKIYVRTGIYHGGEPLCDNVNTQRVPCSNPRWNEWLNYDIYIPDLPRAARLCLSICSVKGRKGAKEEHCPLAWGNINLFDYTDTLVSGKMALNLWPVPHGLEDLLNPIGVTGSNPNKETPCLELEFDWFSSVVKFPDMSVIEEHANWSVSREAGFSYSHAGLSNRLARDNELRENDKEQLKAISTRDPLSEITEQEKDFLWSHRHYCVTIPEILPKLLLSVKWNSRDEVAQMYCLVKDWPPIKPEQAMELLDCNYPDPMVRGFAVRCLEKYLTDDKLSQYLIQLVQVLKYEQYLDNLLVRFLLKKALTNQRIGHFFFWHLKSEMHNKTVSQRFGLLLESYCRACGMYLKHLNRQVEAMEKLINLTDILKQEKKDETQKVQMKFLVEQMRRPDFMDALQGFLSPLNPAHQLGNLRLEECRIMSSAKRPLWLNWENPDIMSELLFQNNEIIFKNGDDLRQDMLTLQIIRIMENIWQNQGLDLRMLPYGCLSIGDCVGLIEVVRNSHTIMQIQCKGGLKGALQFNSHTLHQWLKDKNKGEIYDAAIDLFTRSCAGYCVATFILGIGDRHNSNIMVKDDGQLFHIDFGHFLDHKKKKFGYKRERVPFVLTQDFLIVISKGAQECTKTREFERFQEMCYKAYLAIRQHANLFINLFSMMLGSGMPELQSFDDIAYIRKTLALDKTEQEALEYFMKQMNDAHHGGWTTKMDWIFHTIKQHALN
T1 sequence (P27986 whole entry partner): as the sequence (P27986 whole entry partner) above

Structure (SMILES) | IC50 [1] [µM] | IC50 [2] [µM]
CC(=O)Nc1cc(-c2nc(Cc3ccccc3)c(-c3ncc[nH]3)s2)ccn1 [Compound 2, N-{4-[4-benzyl-5-(1H-imidazol-2-yl)-1,3-thiazol-2-yl]pyridin-2-yl}acetamide] | > 1 | > 1
N#Cc1cc(-c2cc([C@H](O)c3ccc(Cl)cc3)c(-c3nnc[nH]3)s2)ccn1 [Compound 3] | > 1 | < 0.1
Clc1ccc(Cc2cc(-c3ccncc3)sc2-c2nnc[nH]2)cc1 [Compound 5, 4-[4-(4-chlorobenzyl)-5-(4H-1,2,4-triazol-3-yl)-2-thienyl]pyridine] | > 1 | < 0.1
COC(c1ccc(Cl)cc1)c1cc(-c2ccncc2)sc1-c1nnc[nH]1 (stereo not drawn) [Compound 6, 4-[4-[(4-chlorophenyl)(methoxy)methyl]-5-(4H-1,2,4-triazol-3-yl)-2-thienyl]pyridine] | > 1 | 0.1 to 1
Clc1ccc(Cc2nc(-c3ccncc3)sc2-c2nnc[nH]2)cc1Cl [Compound 7] | > 1 | < 0.1
OCc1cc(-c2cc(C(O)c3ccc(Cl)cc3)c(-c3nnc[nH]3)s2)ccn1 (stereo not drawn) [Compound 8] | > 1 | 0.1 to 1
CN(C)C(c1ccc(Cl)cc1)c1cc(-c2ccncc2)sc1-c1nnc[nH]1 (stereo not drawn) [Compound 9, 1-(4-chlorophenyl)-N,N-dimethyl-1-[5-pyridin-4-yl-2-(4H-1,2,4-triazol-3-yl)-3-thienyl]methanamine] | > 1 | < 0.1
Cc1cc(-c2cc(C(O)c3ccc(Cl)cc3)c(-c3nnc[nH]3)s2)ccn1 (stereo not drawn) [Compound 11] | > 1 | < 0.1
N#Cc1c(-c2ccnc(N)c2)sc(-c2nnc[nH]2)c1Cc1ccc(Cl)cc1 [Compound 12, 2-(2-aminopyridin-4-yl)-4-(4-chlorobenzyl)-5-(4H-1,2,4-triazol-3-yl)thiophene-3-carbonitrile] | > 1 | 0.1 to 1

The next lines start with the values.

IC50 [1] [µM] | IC50 [2] [µM] | Structure (SMILES)
> 1 | < 0.1 | O[C@H](c1ccc(Cl)cc1)c1nc(-c2ccncc2)sc1-c1nnc[nH]1 (single isomer, unassigned) [Compound 19, (4-chlorophenyl)[2-pyridin-4-yl-5-(1H-1,2,4-triazol-3-yl)-1,3-thiazol-4-yl]methanol]
0.1 to 1 | 0.1 to 1 | O[C@@H](c1ccc(Cl)cc1)c1cc(-c2ccnc(Cl)c2)sc1-c1nnc[nH]1 (single isomer, unassigned) [Compound 40]
> 1 | 0.1 to 1 | Cc1cc(-c2cc([C@@H](O)c3ccc(Cl)cc3)c(-c3nnc[nH]3)s2)ccn1 (single isomer, unassigned) [Compound 69]
> 1 | 0.1 to 1 | O[C@@H](c1ccc(Cl)cc1)c1nc(-c2ccncc2)sc1-c1nnc[nH]1 (single isomer, unassigned) [Compound 70, (4-chlorophenyl)[2-pyridin-4-yl-5-(1H-1,2,4-triazol-3-yl)-1,3-thiazol-4-yl]methanol]
0.1 to 1 | 0.1 to 1 | Cc1nn2ccc(CN)cc2c1-c1nc(Cc2ccc(Cl)cc2)c(-c2nnc[nH]2)s1 [Compound 1, 1-{3-[4-(4-chlorobenzyl)-5-(4H-1,2,4-triazol-3-yl)-1,3-thiazol-2-yl]-2-methylpyrazolo[1,5-a]pyridin-5-yl}methanamine]
0.1 to 1 | 0.1 to 1 | Cc1nn2ccccc2c1-c1nc(Cc2ccc(Cl)cc2)c(-c2nnc[nH]2)s1 [Compound 4, 3-[4-(4-chlorobenzyl)-5-(4H-1,2,4-triazol-3-yl)-1,3-thiazol-2-yl]-2-methylpyrazolo[1,5-a]pyridine]
0.1 to 1 | 0.1 to 1 | OC(c1ccc(Cl)cc1)c1cc(-c2ccnc3[nH]ccc23)sc1-c1nnc[nH]1 (stereo not drawn) [Compound 10]
< 0.1 | < 0.1 | OC(c1ccc(Cl)cc1)c1cc(-c2ccnc3ccsc23)sc1-c1nnc[nH]1 (stereo not drawn) [Compound 13]
0.1 to 1 | < 0.1 | OC(c1ccc(Cl)cc1)c1cc(-c2ccnc(Cl)c2)sc1-c1nnc[nH]1 (stereo not drawn) [Compound 14]
